According to article PMC9044951, “Bioinformatic Mining and Structure-Activity Profiling of Baeyer-Villiger Monooxygenases from Mycobacterium tuberculosis” (mSphere, 2022):

Experiments:
Rv0565c = Rv0565c (Mycobacterium tuberculosis, UniProt O53762)
EthA (Rv3854c) = EthA (Rv3854c) (Mycobacterium tuberculosis, UniProt P9WNF9); format: biochemical
Rv0892 = Rv0892 (Mycobacterium tuberculosis, UniProt P9WNG1)
CCCC(=O)CC(=O)OCC = experiment: purified protein; details: pH 7.5; 25.0 °C
CCCCCCC(C)=O = experiment: purified protein; details: pH 7.5; 25.0 °C

Sequence of Rv0892 (P9WNG1 whole entry, looked up): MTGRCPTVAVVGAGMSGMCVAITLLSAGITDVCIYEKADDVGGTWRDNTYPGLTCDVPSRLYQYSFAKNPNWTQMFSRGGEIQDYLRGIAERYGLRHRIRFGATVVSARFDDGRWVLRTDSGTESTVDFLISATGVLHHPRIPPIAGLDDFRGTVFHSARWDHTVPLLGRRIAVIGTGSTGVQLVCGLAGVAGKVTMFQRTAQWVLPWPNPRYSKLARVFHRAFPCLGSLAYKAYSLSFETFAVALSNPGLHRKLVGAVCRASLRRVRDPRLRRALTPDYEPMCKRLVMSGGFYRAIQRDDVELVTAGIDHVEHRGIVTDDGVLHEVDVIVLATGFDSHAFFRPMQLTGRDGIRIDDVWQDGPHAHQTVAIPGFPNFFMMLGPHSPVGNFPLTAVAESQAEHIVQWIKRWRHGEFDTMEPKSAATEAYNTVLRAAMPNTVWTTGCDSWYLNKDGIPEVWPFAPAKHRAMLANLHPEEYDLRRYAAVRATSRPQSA
Sequence of EthA (Rv3854c) (P9WNF9 whole entry, looked up): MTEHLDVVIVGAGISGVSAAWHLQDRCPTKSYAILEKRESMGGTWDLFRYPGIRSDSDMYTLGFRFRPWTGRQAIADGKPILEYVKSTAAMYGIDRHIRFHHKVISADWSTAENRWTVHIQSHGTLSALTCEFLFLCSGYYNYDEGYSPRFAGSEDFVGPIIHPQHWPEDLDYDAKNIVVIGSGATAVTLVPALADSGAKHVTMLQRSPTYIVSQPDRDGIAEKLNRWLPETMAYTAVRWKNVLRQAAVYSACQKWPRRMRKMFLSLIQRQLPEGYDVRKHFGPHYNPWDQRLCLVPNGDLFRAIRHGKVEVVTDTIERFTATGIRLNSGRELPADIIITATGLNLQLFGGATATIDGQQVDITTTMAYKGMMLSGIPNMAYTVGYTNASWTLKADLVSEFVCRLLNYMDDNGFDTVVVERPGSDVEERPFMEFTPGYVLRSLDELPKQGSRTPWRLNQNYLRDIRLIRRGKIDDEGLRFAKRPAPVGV
Sequence of Rv0565c (O53762 entry or part of it): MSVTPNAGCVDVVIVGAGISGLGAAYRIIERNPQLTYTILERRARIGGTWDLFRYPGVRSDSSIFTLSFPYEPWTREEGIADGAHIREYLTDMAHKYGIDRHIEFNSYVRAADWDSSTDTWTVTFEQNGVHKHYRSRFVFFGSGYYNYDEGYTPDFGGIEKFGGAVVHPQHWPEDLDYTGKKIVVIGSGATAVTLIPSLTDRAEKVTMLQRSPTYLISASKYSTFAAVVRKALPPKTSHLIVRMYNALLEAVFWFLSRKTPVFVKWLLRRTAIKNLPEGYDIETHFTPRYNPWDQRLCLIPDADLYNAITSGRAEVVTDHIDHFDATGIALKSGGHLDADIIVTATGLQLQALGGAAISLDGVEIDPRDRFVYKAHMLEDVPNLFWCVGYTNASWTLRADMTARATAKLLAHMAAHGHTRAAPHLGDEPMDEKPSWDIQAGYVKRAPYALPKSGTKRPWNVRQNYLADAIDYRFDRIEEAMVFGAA

For `CCCCCCC(C)=O` [2-octanone], the activity (Rv0565c) was “Rv0565c and EthA are efficient in oxidizing 2-octanone”, the activity (EthA (Rv3854c)) was “Rv0565c and EthA are efficient in oxidizing 2-octanone” and the specific activity (Rv0892) was “Rv0892 exhibits markedly low catalytic rates on the tested substrates”.
For `CCCC(=O)CC(=O)OCC` [ethyl 3-oxohexanoate], the activity (Rv0565c) was “with 2-oct and Et3-ox being the most effective substrates”, the activity (EthA (Rv3854c)) was “with 2-oct and Et3-ox being the most effective substrates” and the specific activity (Rv0892) was “Rv0892 exhibits markedly low catalytic rates on the tested substrates”.
“MymA (Rv3083), MymAcoli (Mycobacterium tuberculosis H37Rv)” was tested, and the Km (CCCC(=O)CC(=O)OCC) was 240 ± 40 µM and the Km (CCCCCCC(C)=O) was 400 ± 100 µM.
